For orientation: EC50 means the concentration needed to bring the measured effect to its halfway point.

These results are taken from US20090264383A1, “Inhibitor of Adenylyl Cyclase for Treating a Disorder of the Circadian Rhythm” (Medical Research Council, priority 2006, published 2009).

The test system of one series is organotypic SCN slices. Nature of the series: Bioluminescence recording of circadian gene expression in organotypic SCN slices (mPer1::luc / PER2::LUC). The series is classed as cell-based, mice. As to the method: (§1) Per1::luciferase and; Per2-luc transgenic mice were used. For organotypic slice culture, brains were removed from pups 5-10 days old and sectioned at 300 um with a McIlwain “Tissue Chopper.” Slices were sorted and trimmed to contain principally SCN tissue and placed onto a Millipore membrane insert (PICMORG) for culture at 37° C. in 5% CO2 as described previously (Gainer et al, 1998).
Recordings of luciferase activity from organotypic slices of SCN or peripheral tissues were made from 5-7 day old pups from PER2::LUC and, Per1::LUC mice using either photomultiplier assemblies for whole tissue emission or CCD camera for single SCN cell imaging (Hamamatsu Photonics Ltd, U.K.) as described May Wood et al 2006 Curr. Biol. Vol. 16 pp 599-605. cAMP-ELISA kit was purchased from R&D systems (Wiesbaden, Germany). NIH 3T3 cells were cultured as described (Kume et al 1999 Cell Vol 98 pp 193-205) and transfected using Genejuice (Novagen, San Diego, Calif.). […] Drugs were solubilized in medium or dimethylsulfoxide (DMSO) to make stock solutions 50-1000× the working solutions. [DMSO] was never greater than 0.4%. RNA-interference against Epac1 and Epac 2 used pre-validated sequences as instructed (Validated Stealth RNAi, Invitrogen, CA). Western Blots were performed as Reddy et al (2006 Curr. Biol. Vol 16 oo 1107-15). Behavioural rhythms, recorded by running wheel and passive infra-red movement detectors, were analysed in Clocklab (Actimetrics, Evanston Ill.). Central cannulae directed stereotaxically at the SCN and sub-cutaneous minipumps (Alzet® model 1002 pump and brain infusion kit II) for drug infusion were fitted as instructed (Durect Corp. Cupertino, Calif.).
Statistical analysis was performed using Prism GraphPad™ and Statview™. Periods were calculated over ≧3 days recoding For comparative purposes, transcriptional amplitude from PMT recordings was calculated as 100× (post-treatment emission peak-trough/pre-treatment peak-trough). In all cases error bars indicate SEM about the mean where n≧3.

A short description of another series: Water solubility. It is filed as physicochemical.
The conditions of series [1]: compared with THFA; cited from earlier work.
The test system of series [2] is Slices/3T3 cells/other tissues. The following applies: 10 mM LiCl2 (slices); 2 mM THFA (slices/3T3 cells/other tissues). As to the method:
as §1

In the next series the target is T1, inositol monophosphatase (Homo sapiens, UniProt P29218).
T1 sequence (P29218 1-277): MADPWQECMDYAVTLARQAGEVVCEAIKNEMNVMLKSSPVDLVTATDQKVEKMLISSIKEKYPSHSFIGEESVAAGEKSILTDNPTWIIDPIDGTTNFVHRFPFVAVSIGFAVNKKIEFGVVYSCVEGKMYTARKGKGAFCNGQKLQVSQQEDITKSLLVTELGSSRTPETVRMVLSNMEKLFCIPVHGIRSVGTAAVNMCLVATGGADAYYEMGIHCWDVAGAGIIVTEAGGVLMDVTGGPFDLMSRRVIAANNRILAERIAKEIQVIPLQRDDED
The following applies: cited from earlier work.

Series [3] deals with T2, inositol polyphosphate 1-phosphatase (Homo sapiens, UniProt P49441).
T2 sequence (P49441 1-399): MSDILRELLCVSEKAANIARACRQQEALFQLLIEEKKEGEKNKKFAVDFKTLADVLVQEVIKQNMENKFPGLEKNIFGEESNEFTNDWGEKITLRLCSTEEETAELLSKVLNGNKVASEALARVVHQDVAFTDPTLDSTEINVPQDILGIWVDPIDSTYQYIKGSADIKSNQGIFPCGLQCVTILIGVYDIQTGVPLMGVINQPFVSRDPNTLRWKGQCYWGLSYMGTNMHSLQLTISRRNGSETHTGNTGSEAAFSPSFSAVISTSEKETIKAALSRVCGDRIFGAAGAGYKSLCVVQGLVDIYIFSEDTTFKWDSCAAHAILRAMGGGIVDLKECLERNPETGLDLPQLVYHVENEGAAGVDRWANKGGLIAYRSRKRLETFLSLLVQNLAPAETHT
The following applies: cited from earlier work.

For series [4], the target named is T3, bisphosphate nucleotidase (Homo sapiens, UniProt O95861).
T3 sequence (O95861 1-308): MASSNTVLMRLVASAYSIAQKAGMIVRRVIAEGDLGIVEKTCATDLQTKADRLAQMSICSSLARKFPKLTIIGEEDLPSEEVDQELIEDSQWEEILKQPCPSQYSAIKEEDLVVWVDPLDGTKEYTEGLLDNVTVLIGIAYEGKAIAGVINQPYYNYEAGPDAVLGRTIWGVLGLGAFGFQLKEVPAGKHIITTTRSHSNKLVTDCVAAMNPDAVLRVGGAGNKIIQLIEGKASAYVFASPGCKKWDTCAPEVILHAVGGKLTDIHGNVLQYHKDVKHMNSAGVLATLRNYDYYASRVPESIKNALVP
The following applies: cited from earlier work.

The conditions of series [5]: 1 mM lithium final concentration in human serum; cited from earlier work.

“Also recorded” adds a separate entry of the source.

Turning to `Nc1ncnc2c1ncn2C1CCCC1` [9-(cyclopentyl)-adenine, 9-(Cyclopentyl)-adenine], the “effect on circadian period” value with organotypic SCN slices (wild-type mPer1::luc / PER2::LUC SCN slices) is “Reversible period lengthening; also recorded: Period was lengthened”. In addition, in the series “Water solubility”, the “water solubility” value was “water soluble”. The solubility in “Water solubility” (water, read-out: water soluble up to) is at least 125 mM. Besides, in series [1], the “metabolic and chemical stability” value is “greater metabolic and chemical stability than THFA”.

As to `[Li]` [Lithium], the “increase in SCN period in vitro” value in the series on organotypic SCN slices (10 mM lithium) lay in the range of 2 to 3 h. The circadian period result with organotypic SCN slices (lithium treatment, organotypic slices, concentration not given) is “approximately 26 hours”; in the series on organotypic SCN slices (slices in 10 mM lithium), 26 h. Moreover, the “increase in circadian period” value with organotypic SCN slices (lithium, organotypic tissue extracts) was about 2 h. The “appearance of slices / cells / tissues” value in series [2] is “appear perfectly healthy”. Further, the EC50 (on inositol monophosphatase; in series [3]; in series [4]) was under 2000 µM each time. Besides, the “toxicity” value in series [5] was “non-toxic”.
